Laboratory results reported in patent US5750530A, “Pharmaceutical diketopiperazine compounds” (Xenova Limited, priority 1994, dated 1998).
Counter-ions that a name gives are not always drawn.

Target: PAI-1 (Homo sapiens, UniProt P05121)
Assay: biochemical
Type: biochemical
Details: for IC50: PAI chromogenic substrate assay
In short: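 Compound preincubated with PAI-1 before addition to a tPA system; residual tPA converts plasminogen to plasmin, which cleaves chromogenic substrate S2251. Released p-nitroaniline read at 405 nm; values given as % inhibition at set concentrations or IC50.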

Chain of PAI-1 (P05121 24-402): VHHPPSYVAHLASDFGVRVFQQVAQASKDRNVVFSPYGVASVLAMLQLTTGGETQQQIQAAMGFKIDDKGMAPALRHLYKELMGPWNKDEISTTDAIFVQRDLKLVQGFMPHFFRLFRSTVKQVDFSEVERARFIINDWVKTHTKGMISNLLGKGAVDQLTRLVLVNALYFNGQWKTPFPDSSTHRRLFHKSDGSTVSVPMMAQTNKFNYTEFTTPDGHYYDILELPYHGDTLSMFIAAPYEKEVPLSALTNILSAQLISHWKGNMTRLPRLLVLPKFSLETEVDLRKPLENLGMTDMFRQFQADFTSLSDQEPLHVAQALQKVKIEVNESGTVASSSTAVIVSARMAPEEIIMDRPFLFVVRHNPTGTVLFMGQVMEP

COC(=O)c1ccc(/C=c2\[nH]c(=O)/c(=C/c3ccc(SCCN(C)C)s3)[nH]c2=O)cc1 [Compound 5477.HCl, (3Z,6Z)-3-(5-(2-Dimethylaminoethylthio)-2-thienyl)methylene-6-(4-methoxycarbonylbenzylidene)-2,5-piperazinedione]
% Inhibition (5 μm): 19%
% Inhibition (20 μm): 69%
IC50: 15.4 µM

COC(=O)c1ccc(/C=c2\[nH]c(=O)/c(=C/c3ccc(SCCN(C)C)cc3)[nH]c2=O)cc1 [Compound 5478.HCl, (3Z,6Z)-3-(4-(2-Dimethylaminoethylthio)benzylidene)-6-(4-methoxycarbonylbenzylidene)-2,5-piperazinedione]
% Inhibition (5 μm): 3%
% Inhibition (20 μm): 60%
IC50: 16.9 µM

COc1ccc(/C=c2\[nH]c(=O)/c(=C/c3ccc(SCCN(C)C)cc3)[nH]c2=O)cc1 [Compound 5479, (3Z,6Z)-3-(4-(2-Dimethylaminoethylthio)benzylidene)-6-(4-methoxybenzylidene)-2,5-piperazinedione]
% Inhibition (5 μm): 66%
% Inhibition (20 μm): 70%
IC50: 4.3 µM

COc1ccc(/C=c2\[nH]c(=O)/c(=C/c3ccc(SCCN(C)C)cc3)[nH]c2=O)cc1 [Compound 5479.HCl, (3Z,6Z)-3-(4-(2-Dimethylaminoethylthio)benzylidene)-6-(4-methoxybenzylidene)-2,5-piperazinedione]
% Inhibition (5 μm): 62%
% Inhibition (20 μm): 75%
IC50: 4.8 µM

CN(C)CCSc1ccc(/C=c2\[nH]c(=O)/c(=C/c3ccc(Br)cc3)[nH]c2=O)cc1 [Compound 5480, (3Z,6Z)-3-(4-Bromobenzylidene)-6-(4-(2-dimethylaminoethylthio)benzylidene)-2,5-piperazinedione]
% Inhibition (5 μm): 53%
% Inhibition (20 μm): 74%
IC50: 5.2 µM

CN(C)CCSc1ccc(/C=c2\[nH]c(=O)/c(=C/c3ccc(Br)cc3)[nH]c2=O)cc1 [Compound 5480.HCl, (3Z,6Z)-3-(4-Bromobenzylidene)-6-(4-(2-dimethylaminoethylthio)benzylidene)-2,5-piperazinedione]
% Inhibition (5 μm): 52%
% Inhibition (20 μm): 76%

CN(C)CCSc1ccc(/C=c2\[nH]c(=O)/c(=C/c3ccc(OCc4ccccc4)cc3)[nH]c2=O)cc1 [Compound 5481, (3Z,6Z)-3-(4-Benzyloxybenzylidene)-6-(4-(2-dimethylaminoethylthio)benzylidene)-2,5-piperazinedione]
% Inhibition (5 μm): 9%
% Inhibition (20 μm): 56%
IC50: 20 µM

CN(C)CCSc1ccc(/C=c2\[nH]c(=O)/c(=C/c3ccc(OCc4ccccc4)cc3)[nH]c2=O)cc1 [Compound 5481.HCl, (3Z,6Z)-3-(4-Benzyloxybenzylidene)-6-(4-(2-dimethylaminoethylthio)benzylidene)-2,5-piperazinedione]
% Inhibition (5 μm): 10%
% Inhibition (20 μm): 55%

CN(C)CCSc1ccc(/C=c2\[nH]c(=O)/c(=C/c3ccc(OCc4ccccc4)cc3)[nH]c2=O)s1 [Compound 5482, (3Z,6Z)-6-(4-Benzyloxybenzylidene)-3-(5-(2-dimethylaminoethylthio)-2-thienyl)methylene-2,5-piperazinedione]
% Inhibition (5 μm): 12%
% Inhibition (20 μm): 50%
IC50: 20 µM

CN(C)CCSc1ccc(/C=c2\[nH]c(=O)/c(=C/c3ccc(OCc4ccccc4)cc3)[nH]c2=O)s1 [Compound 5482.HCl, (3Z,6Z)-6-(4-Benzyloxybenzylidene)-3-(5-(2-dimethylaminoethylthio)-2-thienyl)methylene-2,5-piperazinedione]
% Inhibition (5 μm): 13%
% Inhibition (20 μm): 59%

CN(C)CCSc1ccc(/C=c2\[nH]c(=O)/c(=C/c3cccc(OCc4ccccc4)c3)[nH]c2=O)cc1 [Compound 5486, (3Z,6Z)-3-(3-Benzyloxybenzylidene)-6-(4-(2-dimethylaminoethylthio)benzylidene)-2,5-piperazinedione]
% Inhibition (5 μm): 13%
% Inhibition (20 μm): 55%
IC50: 20 µM

CN(C)CCSc1ccc(/C=c2\[nH]c(=O)/c(=C/c3cccc(OCc4ccccc4)c3)[nH]c2=O)cc1 [Compound 5486.HCl, (3Z,6Z)-3-(3-Benzyloxybenzylidene)-6-(4-(2-dimethylaminoethylthio)benzylidene)-2,5-piperazinedione]
% Inhibition (5 μm): 4%
% Inhibition (20 μm): 49%

CN(C)CCSc1ccc(/C=c2\[nH]c(=O)/c(=C/c3cccc(OCc4ccccc4)c3)[nH]c2=O)s1 [Compound 5487, (3Z,6Z)-6-(3-Benzyloxybenzylidene)-3-(5-(2-dimethylaminoethylthio)-2-thienyl)methylene-2,5-piperazinedione]
% Inhibition (5 μm): 15%
% Inhibition (20 μm): 60%
IC50: 8.6 µM

CN(C)CCSc1ccc(/C=c2\[nH]c(=O)/c(=C/c3cccc(OCc4ccccc4)c3)[nH]c2=O)s1 [Compound 5487.HCl, (3Z,6Z)-6-(3-Benzyloxybenzylidene)-3-(5-(2-dimethylaminoethylthio)-2-thienyl)methylene-2,5-piperazinedione]
% Inhibition (5 μm): 7%
% Inhibition (20 μm): 54%
IC50: 7.2 µM

COc1cc(/C=c2\[nH]c(=O)/c(=C/c3ccc(SCCN(C)C)s3)[nH]c2=O)ccc1OCc1ccc([N+](=O)[O-])cc1 [Compound 5488, (3Z,6Z)-3-(5-(2-Dimethylaminoethylthio)-2-thienyl)methylene-6-(3-methoxy-4-(4-nitrobenzyloxy)benzylidene)-2,5-piperazinedione]
% Inhibition (5 μm): 14%
% Inhibition (20 μm): 64%
IC50: 8.2 µM

COc1cc(/C=c2\[nH]c(=O)/c(=C/c3ccc(SCCN(C)C)s3)[nH]c2=O)ccc1OCc1ccc([N+](=O)[O-])cc1 [Compound 5488.HCl, (3Z,6Z)-3-(5-(2-Dimethylaminoethylthio)-2-thienyl)methylene-6-(3-methoxy-4-(4-nitrobenzyloxy)benzylidene)-2,5-piperazinedione]
% Inhibition (5 μm): 15%
% Inhibition (20 μm): 60%
IC50: 7.6 µM

CN(C)CCSc1ccc(/C=c2\[nH]c(=O)/c(=C/c3ccc(Br)cc3)[nH]c2=O)s1 [Compound 5489, (3Z,6Z)-6-(4-Bromobenzylidene)-3-(5-(2-dimethylaminoethylthio)-2-thienyl)methylene-2,5-piperazinedione]
% Inhibition (5 μm): 6%
% Inhibition (20 μm): 56%
IC50: 13.6 µM

CN(C)CCSc1ccc(/C=c2\[nH]c(=O)/c(=C/c3ccc(Br)cc3)[nH]c2=O)s1 [Compound 5489.HCl, (3Z,6Z)-6-(4-Bromobenzylidene)-3-(5-(2-dimethylaminoethylthio)-2-thienyl)methylene-2,5-piperazinedione]
% Inhibition (5 μm): 9%
% Inhibition (20 μm): 55%
IC50: 12.6 µM

COc1cc(/C=c2\[nH]c(=O)/c(=C/c3ccc(SCCN(C)C)cc3)[nH]c2=O)ccc1OCc1ccc([N+](=O)[O-])cc1 [Compound 5490, (3Z,6Z)-6-(4-(2-Dimethylaminoethylthio)benzylidene)-3-(3-methoxy-4-(4-nitrobenzyloxy)benzylidene)-2,5-piperazinedione]
% Inhibition (5 μm): 6%
% Inhibition (20 μm): 48%
IC50: 20 µM

COc1cc(/C=c2\[nH]c(=O)/c(=C/c3ccc(SCCN(C)C)cc3)[nH]c2=O)ccc1OCc1ccc([N+](=O)[O-])cc1 [Compound 5490.HCl, (3Z,6Z)-6-(4-(2-Dimethylaminoethylthio)benzylidene)-3-(3-methoxy-4-(4-nitrobenzyloxy)benzylidene)-2,5-piperazinedione]
% Inhibition (5 μm): 12%
% Inhibition (20 μm): 66%
IC50: 10.8 µM
